# Key:
# Schistosoma japonicum [1] = experiment: Anti-schistosomal activity against adult Schistosoma japonicum assessed as worm mortality at 100 uM measured at 12 hrs relative to control; assay type: functional
# Schistosoma japonicum [2] = experiment: Anti-schistosomal activity against adult Schistosoma japonicum assessed as worm mortality at 100 uM measured at 4 hrs relative to control; assay type: functional
# Schistosoma japonicum [3] = experiment: Anti-schistosomal activity against adult Schistosoma japonicum assessed as worm mortality at 100 uM measured at 8 hrs relative to control; assay type: functional
# Schistosoma japonicum [4] = experiment: Anti-schistosomal activity against adult Schistosoma japonicum assessed as worm mortality at 100 uM measured at 72 hrs relative to control; assay type: functional
# Schistosoma japonicum [5] = experiment: Anti-schistosomal activity against adult Schistosoma japonicum measured at 72 hrs; assay type: functional, organism-based
# Schistosoma japonicum [6] = experiment: Anti-schistosomal activity against adult Schistosoma japonicum assessed as worm mortality at 100 uM measured at 48 hrs relative to control; assay type: functional
# Schistosoma japonicum [7] = experiment: Anti-schistosomal activity against adult Schistosoma japonicum assessed as worm mortality at 100 uM measured at 24 hrs relative to control; assay type: functional
SMILES,mortality at 100 µM (Schistosoma japonicum [1]) [%],mortality at 100 µM (Schistosoma japonicum [2]) [%],mortality at 100 µM (Schistosoma japonicum [3]) [%],mortality at 100 µM (Schistosoma japonicum [4]) [%],IC50 (Schistosoma japonicum [5]) [µM],mortality at 100 µM (Schistosoma japonicum [6]) [%],mortality at 100 µM (Schistosoma japonicum [7]) [%]
CCOC(=O)/C=C1\S/C(=N\C)N(CCCN2CCN(C)CC2)C1=O,0,0,0,0,> 100,0,0
CCOC(=O)/C=C1\S/C(=N\c2cccc(Cl)c2)N(CCCN2CCN(C)CC2)C1=O,100,10,30,100,41.2,100,100
CCOC(=O)/C=C1\S/C(=N\c2ccc(Br)cc2)N(CCCN2CCN(C)CC2)C1=O,60,0,30,100,35.4,100,100
CN1CCN(CCCN2C(=O)/C(=C/c3ccc(Cl)cc3)S/C2=N\c2ccc(C(F)(F)F)cc2)CC1,0,0,0,100,,100,100
Cc1cc(/C=C2\S/C(=N\c3ccc(C(F)(F)F)cc3)N(CCCN3CCN(C)CC3)C2=O)ccc1F,0,0,0,30,,20,10
CCOC(=O)/C=C1\S/C(=N\c2ccccc2)N(CCN2CCC(Cc3ccccc3)CC2)C1=O,0,0,0,70,91.3,20,0
Cc1ccccc1/C=C1\S/C(=N\c2ccc(C(F)(F)F)cc2)N(CCCN2CCN(C)CC2)C1=O,0,0,0,30,,10,0
CCOC(=O)/C=C1\S/C(=N\c2ccc(Cl)cc2)N(CCCN2CCN(C)CC2)C1=O,80,0,40,100,41.8,100,100
CN1CCN(CCCN2C(=O)/C(=C/c3ccccc3F)S/C2=N\c2ccc(C(F)(F)F)cc2)CC1,0,0,0,20,,0,0
CCOC(=O)/C=C1\S/C(=N\c2ccccc2)N(CCCN2CCCC2)C1=O,0,0,0,100,77.9,30,20
CCOC(=O)/C=C1\S/C(=N\c2ccccc2)N(Cc2ccccc2)C1=O,0,0,0,0,> 100,0,0
CCOC(=O)/C=C1\S/C(=N\c2ccccc2)N(CCN(CC)CC)C1=O,0,0,0,30,> 100,10,10
CN1CCN(CCCN2C(=O)/C(=C/c3cccc(F)c3)S/C2=N\c2ccc(C(F)(F)F)cc2)CC1,0,0,0,30,,30,0
CN1CCN(CCCN2C(=O)/C(=C/c3ccccc3)S/C2=N\c2ccc(C(F)(F)F)cc2)CC1,0,0,0,30,,20,10
CN1CCN(CCCN2C(=O)CS/C2=N\c2ccc(C(F)(F)F)cc2)CC1,0,0,0,10,,0,0
CN1CCN(CCCN2C(=O)/C(=C/c3ccc([N+](=O)[O-])cc3)S/C2=N\c2ccc(C(F)(F)F)cc2)CC1,0,0,0,70,,30,0
Cc1ccc(/C=C2\S/C(=N\c3ccc(C(F)(F)F)cc3)N(CCCN3CCN(C)CC3)C2=O)cc1,0,0,0,100,,70,30

# — ChEMBL document CHEMBL6182876, “Design, synthesis and preliminary structure-activity relationship of 2-iminothiazolidine-4-one derivatives against Schistosoma japonicum in vitro and in vivo” (Eur J Med Chem, 2025)
